Reference: the supplement of paper PMC10307832

Assays:
Test in all cases: relative viability (nuclei count vs DMSO), 5 days (fraction); higher = more cells survive
[1] = test system: LCLC-103H
How it was run: (§1)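 Relative viability was taken as the ratio of nuclei in treated wells to nuclei in vehicle wells. Lung cancer cell lines in 1536-well plates received compounds by pin tool one day after seeding, either one drug alone or a fixed anchor-drug dose plus five library-drug doses (not always all listed) in √10 steps. Nuclei were counted on 4× images after 5 days of treatment, and values are medians of duplicate plates.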

[2] = test system: LXF-289
How it was run: as §1

[3] = test system: NCI-H1355
How it was run: as §1

[4] = test system: NCI-H1563
How it was run: as §1

[5] = test system: NCI-H1651
How it was run: as §1

[6] = test system: NCI-H1755
How it was run: as §1

[7] = test system: NCI-H1792
How it was run: as §1

[8] = test system: NCI-H1915
How it was run: as §1

[9] = test system: NCI-H2347
How it was run: as §1

[10] = test system: NCI-H3122
How it was run: as §1

[11] = test system: NCI-H322M
How it was run: as §1

[12] = test system: NCI-H441
How it was run: as §1

[13] = test system: NCI-H460
How it was run: as §1

[14] = test system: NCI-H520
How it was run: as §1

[15] = test system: NCI-H596
How it was run: as §1

[16] = test system: NCI-H661
How it was run: as §1

[17] = test system: NCI-H727
How it was run: as §1

[18] = test system: PC-14
How it was run: as §1

[19] = test system: RERF-LC-KJ
How it was run: as §1

[20] = test system: SK-MES-1
How it was run: as §1

CC(=O)O[C@@]12CO[C@@H]1C[C@H](O)[C@@]1(C)C(=O)[C@H](O)C3=C(C)[C@@H](OC(=O)[C@H](O)[C@@H](NC(=O)OC(C)(C)C)c4ccccc4)C[C@@](O)([C@@H](OC(=O)c4ccccc4)[C@H]21)C3(C)C [Docetaxel] + C[C@]1(O)C[C@@H](c2nc(-c3ccc4ccc(-c5ccccc5)nc4c3)c3c(N)nccn32)C1 [Linsitinib] (partner 1 µM)
relative viability ([1]; first compound 0.0002 µM): 0.934
relative viability ([1]; first compound 0.000632 µM): 1.18
relative viability ([1]; first compound 0.002 µM): 0.919
relative viability ([1]; first compound 0.006325 µM): 0.479
relative viability ([1]; first compound 0.02 µM): 0.503
relative viability ([2]; first compound 0.0002 µM): 0.989
relative viability ([2]; first compound 0.000632 µM): 0.745
relative viability ([2]; first compound 0.002 µM): 0.628
relative viability ([2]; first compound 0.006325 µM): 0.144
relative viability ([2]; first compound 0.02 µM): 0.106
relative viability ([3]; first compound 0.0002 µM): 0.75
relative viability ([3]; first compound 0.000632 µM): 0.771
relative viability ([3]; first compound 0.002 µM): 0.467
relative viability ([3]; first compound 0.006325 µM): 0.297
relative viability ([3]; first compound 0.02 µM): 0.188
relative viability ([4]; first compound 0.0002 µM): 1.19
relative viability ([4]; first compound 0.000632 µM): 1.15
relative viability ([4]; first compound 0.002 µM): 1.05
relative viability ([4]; first compound 0.006325 µM): 0.988
relative viability ([4]; first compound 0.02 µM): 0.617
relative viability ([5]; first compound 0.0002 µM): 0.876
relative viability ([5]; first compound 0.000632 µM): 0.746
relative viability ([5]; first compound 0.002 µM): 0.229
relative viability ([5]; first compound 0.006325 µM): 0.112
relative viability ([5]; first compound 0.02 µM): 0.117
relative viability ([6]; first compound 0.0002 µM): 0.948
relative viability ([6]; first compound 0.000632 µM): 0.971
relative viability ([6]; first compound 0.002 µM): 0.48
relative viability ([6]; first compound 0.006325 µM): 0.384
relative viability ([6]; first compound 0.02 µM): 0.302
relative viability ([7]; first compound 0.0002 µM): 0.539
relative viability ([7]; first compound 0.000632 µM): 0.509
relative viability ([7]; first compound 0.002 µM): 0.379
relative viability ([7]; first compound 0.02 µM): 0.0833
relative viability ([8]; first compound 0.0002 µM): 1.07
relative viability ([8]; first compound 0.000632 µM): 1.06
relative viability ([8]; first compound 0.002 µM): 0.724
relative viability ([8]; first compound 0.006325 µM): 0.239
relative viability ([8]; first compound 0.02 µM): 0.156
relative viability ([9]; first compound 0.0002 µM): 0.946
relative viability ([9]; first compound 0.000632 µM): 0.926
relative viability ([9]; first compound 0.002 µM): 0.839
relative viability ([9]; first compound 0.006325 µM): 0.622
relative viability ([9]; first compound 0.02 µM): 0.517
relative viability ([10]; first compound 0.0002 µM): 1
relative viability ([10]; first compound 0.000632 µM): 1
relative viability ([10]; first compound 0.002 µM): 0.79
relative viability ([10]; first compound 0.006325 µM): 0.349
relative viability ([10]; first compound 0.02 µM): 0.218
relative viability ([11]; first compound 0.0002 µM): 0.852
relative viability ([11]; first compound 0.000632 µM): 0.989
relative viability ([11]; first compound 0.002 µM): 0.878
relative viability ([11]; first compound 0.006325 µM): 0.547
relative viability ([11]; first compound 0.02 µM): 0.374
relative viability ([12]; first compound 0.0002 µM): 0.405
relative viability ([12]; first compound 0.000632 µM): 0.27
relative viability ([12]; first compound 0.002 µM): 0.172
relative viability ([12]; first compound 0.006325 µM): 0.224
relative viability ([12]; first compound 0.02 µM): 0.117
relative viability ([13]; first compound 0.0002 µM): 0.715
relative viability ([13]; first compound 0.000632 µM): 0.153
relative viability ([13]; first compound 0.002 µM): 0.0174
relative viability ([13]; first compound 0.006325 µM): 0.0113
relative viability ([13]; first compound 0.02 µM): 0.0074
relative viability ([14]; first compound 0.0002 µM): 1.06
relative viability ([14]; first compound 0.000632 µM): 0.887
relative viability ([14]; first compound 0.002 µM): 0.277
relative viability ([14]; first compound 0.006325 µM): 0.182
relative viability ([14]; first compound 0.02 µM): 0.133
relative viability ([15]; first compound 0.0002 µM): 1.02
relative viability ([15]; first compound 0.000632 µM): 0.953
relative viability ([15]; first compound 0.002 µM): 0.754
relative viability ([15]; first compound 0.006325 µM): 0.761
relative viability ([15]; first compound 0.02 µM): 0.437
relative viability ([16]; first compound 0.0002 µM): 0.593
relative viability ([16]; first compound 0.000632 µM): 0.683
relative viability ([16]; first compound 0.002 µM): 0.45
relative viability ([16]; first compound 0.006325 µM): 0.449
relative viability ([16]; first compound 0.02 µM): 0.261
relative viability ([17]; first compound 0.0002 µM): 0.384
relative viability ([17]; first compound 0.000632 µM): 0.307
relative viability ([17]; first compound 0.002 µM): 0.22
relative viability ([17]; first compound 0.006325 µM): 0.211
relative viability ([17]; first compound 0.02 µM): 0.21
relative viability ([18]; first compound 0.0002 µM): 0.992
relative viability ([18]; first compound 0.000632 µM): 0.957
relative viability ([18]; first compound 0.002 µM): 0.606
relative viability ([18]; first compound 0.006325 µM): 0.152
relative viability ([18]; first compound 0.02 µM): 0.064
relative viability ([19]; first compound 0.0002 µM): 0.864
relative viability ([19]; first compound 0.000632 µM): 0.826
relative viability ([19]; first compound 0.002 µM): 0.504
relative viability ([19]; first compound 0.006325 µM): 0.207
relative viability ([19]; first compound 0.02 µM): 0.145
relative viability ([20]; first compound 0.0002 µM): 1.05
relative viability ([20]; first compound 0.000632 µM): 0.967
relative viability ([20]; first compound 0.002 µM): 0.634
relative viability ([20]; first compound 0.006325 µM): 0.26
relative viability ([20]; first compound 0.02 µM): 0.177
